Data reported in ChEMBL document CHEMBL3797178, “Synthesis, antimycobacterial and antibacterial activity of 1-(6-amino-3,5-difluoropyridin-2-yl)fluoroquinolone derivatives containing an oxime functional moiety” (2016).
≈ marks a conversion by molar mass, not a printed value.

How the values were obtained:
Assay type in all cases: functional
[1] = system: Mycobacterium tuberculosis; test: Antimycobacterial activity against Mycobacterium tuberculosis H37Rv ATCC 27294 after 3 days by microplate Alamar Blue assay; conditions: H37Rv ATCC 27294, 72 h
Enterococcus faecium [2] = test: Antibacterial activity against Enterococcus faecium 14-1 after 18 to 24 hrs by CLSI M100-S11 method
Staphylococcus aureus [3] = test: Antibacterial activity against methicillin-sensitive Staphylococcus aureus 14-4 after 18 to 24 hrs by CLSI M100-S11 method
Pseudomonas aeruginosa [4] = test: Antibacterial activity against Pseudomonas aeruginosa 14-15 after 18 to 24 hrs by CLSI M100-S11 method
Escherichia coli [5] = test: Antibacterial activity against extended-spectrum beta-lactamase-producing Escherichia coli 14-2 after 18 to 24 hrs by CLSI M100-S11 method
Escherichia coli [6] = test: Antibacterial activity against Escherichia coli 14-2 after 18 to 24 hrs by CLSI M100-S11 method
Escherichia coli [7] = test: Antibacterial activity against Escherichia coli 14-1 after 18 to 24 hrs by CLSI M100-S11 method
Staphylococcus aureus [8] = test: Antibacterial activity against methicillin-resistant Staphylococcus aureus 14-4 after 18 to 24 hrs by CLSI M100-S11 method
[9] = system: Staphylococcus epidermidis; test: Antibacterial activity against methicillin-resistant Staphylococcus epidermidis 14-39 after 18 to 24 hrs by CLSI M100-S11 method
[10] = system: Staphylococcus epidermidis; test: Antibacterial activity against methicillin-sensitive Staphylococcus epidermidis 14-2 after 18 to 24 hrs by CLSI M100-S11 method
Pseudomonas aeruginosa [11] = test: Antibacterial activity against Pseudomonas aeruginosa 14-16 after 18 to 24 hrs by CLSI M100-S11 method
Staphylococcus aureus [12] = test: Antibacterial activity against methicillin-sensitive Staphylococcus aureus 14-3 after 18 to 24 hrs by CLSI M100-S11 method
[13] = system: Staphylococcus epidermidis; test: Antibacterial activity against methicillin-sensitive Staphylococcus epidermidis 14-6 after 18 to 24 hrs by CLSI M100-S11 method
[14] = system: Staphylococcus epidermidis; test: Antibacterial activity against methicillin-sensitive Staphylococcus epidermidis 14-4 after 18 to 24 hrs by CLSI M100-S11 method
Pseudomonas aeruginosa [15] = test: Antibacterial activity against Pseudomonas aeruginosa 14-14 after 18 to 24 hrs by CLSI M100-S11 method
Staphylococcus aureus [16] = test: Antibacterial activity against methicillin-resistant Staphylococcus aureus 14-5 after 18 to 24 hrs by CLSI M100-S11 method
[17] = system: Staphylococcus epidermidis; test: Antibacterial activity against methicillin-resistant Staphylococcus epidermidis 14-22 after 18 to 24 hrs by CLSI M100-S11 method
Klebsiella pneumoniae [18] = test: Antibacterial activity against Klebsiella pneumoniae 14-1 after 18 to 24 hrs by CLSI M100-S11 method
Klebsiella pneumoniae [19] = test: Antibacterial activity against extended-spectrum beta-lactamase-producing Klebsiella pneumoniae 14-18 after 18 to 24 hrs by CLSI M100-S11 method
[20] = system: Staphylococcus epidermidis; test: Antibacterial activity against methicillin-resistant Staphylococcus epidermidis 14-37 after 18 to 24 hrs by CLSI M100-S11 method
Streptococcus pneumoniae = test: Antibacterial activity against Streptococcus pneumoniae ATCC 19615 after 18 to 24 hrs by CLSI M100-S11 method
Pseudomonas aeruginosa [21] = test: Antibacterial activity against Pseudomonas aeruginosa 14-9 after 18 to 24 hrs by CLSI M100-S11 method
Enterococcus faecalis [22] = test: Antibacterial activity against Enterococcus faecalis 14-3 after 18 to 24 hrs by CLSI M100-S11 method
Klebsiella pneumoniae [23] = test: Antibacterial activity against Klebsiella pneumoniae 14-3 after 18 to 24 hrs by CLSI M100-S11 method
Klebsiella pneumoniae [24] = test: Antibacterial activity against Klebsiella pneumoniae 14-2 after 18 to 24 hrs by CLSI M100-S11 method
Klebsiella pneumoniae [25] = test: Antibacterial activity against extended-spectrum beta-lactamase-producing Klebsiella pneumoniae 14-17 after 18 to 24 hrs by CLSI M100-S11 method
Enterococcus faecalis [26] = test: Antibacterial activity against Enterococcus faecalis 14-2 after 18 to 24 hrs by CLSI M100-S11 method
Escherichia coli [27] = test: Antibacterial activity against Escherichia coli ATCC 25922 after 18 to 24 hrs by CLSI M100-S11 method
Enterococcus faecium [28] = test: Antibacterial activity against Enterococcus faecium 14-2 after 18 to 24 hrs by CLSI M100-S11 method
Enterococcus faecalis [29] = test: Antibacterial activity against Enterococcus faecalis 14-1 after 18 to 24 hrs by CLSI M100-S11 method
Escherichia coli [30] = test: Antibacterial activity against extended-spectrum beta-lactamase-producing Escherichia coli 14-1 after 18 to 24 hrs by CLSI M100-S11 method
Pseudomonas aeruginosa [31] = test: Antibacterial activity against Pseudomonas aeruginosa ATCC 27853 after 18 to 24 hrs by CLSI M100-S11 method
Staphylococcus aureus [32] = test: Antibacterial activity against methicillin-sensitive Staphylococcus aureus 14-2 after 18 to 24 hrs by CLSI M100-S11 method
Klebsiella pneumoniae [33] = test: Antibacterial activity against Klebsiella pneumoniae 14-4 after 18 to 24 hrs by CLSI M100-S11 method
Staphylococcus aureus [34] = test: Antibacterial activity against Staphylococcus aureus CMCC 26003 after 18 to 24 hrs by CLSI M100-S11 method
Klebsiella pneumoniae [35] = test: Antibacterial activity against extended-spectrum beta-lactamase-producing Klebsiella pneumoniae 14-19 after 18 to 24 hrs by CLSI M100-S11 method
Pseudomonas aeruginosa [36] = test: Antibacterial activity against Pseudomonas aeruginosa 14-19 after 18 to 24 hrs by CLSI M100-S11 method

Structure (SMILES)	MIC [1] [µg/mL]	MIC (Enterococcus faecium [2]) [µg/mL]	MIC (Staphylococcus aureus [3]) [µg/mL]	MIC (Pseudomonas aeruginosa [4]) [µg/mL]	MIC (Escherichia coli [5]) [µg/mL]	MIC (Escherichia coli [6]) [µg/mL]	MIC (Escherichia coli [7]) [µg/mL]	MIC (Staphylococcus aureus [8]) [µg/mL]	MIC [10] [µg/mL]	MIC (Pseudomonas aeruginosa [11]) [µg/mL]	MIC (Staphylococcus aureus [12]) [µg/mL]	MIC [13] [µg/mL]	MIC [14] [µg/mL]	MIC (Pseudomonas aeruginosa [15]) [µg/mL]	MIC (Staphylococcus aureus [16]) [µg/mL]	MIC [17] [µg/mL]	MIC (Klebsiella pneumoniae [18]) [µg/mL]	MIC (Klebsiella pneumoniae [19]) [µg/mL]	MIC [20] [µg/mL]	MIC (Streptococcus pneumoniae) [µg/mL]	further results
NNC(=O)c1ccncc1 [ISONIAZID]	0.05 (≈ 0.365 µM)	–	–	–	–	–	–	–	–	–	–	–	–	–	–	–	–	–	–	–	–
NC[C@H]1/C(=N/OCc2ccccc2)CN1c1nc2c(cc1F)c(=O)c(C(=O)O)cn2-c1nc(N)c(F)cc1F	> 32	> 128	4 (≈ 7.41 µM)	128 (≈ 237 µM)	> 128	> 128	> 128	> 128	> 128	128 (≈ 237 µM)	4 (≈ 7.41 µM)	> 128	> 128	128 (≈ 237 µM)	> 128	> 128	> 128	128 (≈ 237 µM)	> 128	64 (≈ 119 µM)	MIC [9]: > 130 µg/mL; MIC (Pseudomonas aeruginosa [21]): 128 µg/mL (≈ 237 µM); MIC (Enterococcus faecalis [22]): > 128 µg/mL; MIC (Klebsiella pneumoniae [23]): > 128 µg/mL; MIC (Klebsiella pneumoniae [24]): > 128 µg/mL; MIC (Klebsiella pneumoniae [25]): > 128 µg/mL; MIC (Enterococcus faecalis [26]): > 128 µg/mL; MIC (Escherichia coli [27]): 4 µg/mL (≈ 7.41 µM); MIC (Enterococcus faecium [28]): 32 µg/mL (≈ 59.3 µM); MIC (Enterococcus faecalis [29]): > 128 µg/mL; MIC (Escherichia coli [30]): 64 µg/mL (≈ 119 µM); MIC (Pseudomonas aeruginosa [31]): 64 µg/mL (≈ 119 µM); MIC (Staphylococcus aureus [32]): 2 µg/mL (≈ 3.71 µM); MIC (Klebsiella pneumoniae [33]): > 128 µg/mL; MIC (Staphylococcus aureus [34]): 2 µg/mL (≈ 3.71 µM); MIC (Klebsiella pneumoniae [35]): > 128 µg/mL
O=C(O)c1cn(C2CC2)c2cc(N3CCNCC3)c(F)cc2c1=O [CIPROFLOXACIN]	0.25 (≈ 0.754 µM)	–	–	–	–	–	–	–	–	–	–	–	–	–	–	–	–	–	–	–	–
CO/N=C1\CCN(c2nc3c(cc2F)c(=O)c(C(=O)O)cn3-c2nc(N)c(F)cc2F)CC1O (stereo not given)	30.7 (≈ 64.3 µM)	> 128	4 (≈ 8.36 µM)	128 (≈ 268 µM)	> 128	> 128	> 128	> 128	> 128	128 (≈ 268 µM)	4 (≈ 8.36 µM)	> 128	> 128	128 (≈ 268 µM)	128 (≈ 268 µM)	> 128	> 128	> 128	> 128	64 (≈ 134 µM)	MIC (Pseudomonas aeruginosa [36]): 128 µg/mL (≈ 268 µM); MIC (Pseudomonas aeruginosa [21]): 128 µg/mL (≈ 268 µM); MIC (Enterococcus faecalis [22]): > 128 µg/mL; MIC (Klebsiella pneumoniae [23]): > 128 µg/mL; MIC (Klebsiella pneumoniae [24]): > 128 µg/mL; MIC (Klebsiella pneumoniae [25]): > 128 µg/mL; MIC (Enterococcus faecalis [26]): > 128 µg/mL; MIC (Escherichia coli [27]): 64 µg/mL (≈ 134 µM); MIC (Enterococcus faecium [28]): 64 µg/mL (≈ 134 µM); MIC (Enterococcus faecalis [29]): > 128 µg/mL; MIC (Escherichia coli [30]): 64 µg/mL (≈ 134 µM); MIC (Pseudomonas aeruginosa [31]): 128 µg/mL (≈ 268 µM); MIC (Staphylococcus aureus [32]): 2 µg/mL (≈ 4.18 µM); MIC (Klebsiella pneumoniae [33]): > 128 µg/mL; MIC (Staphylococcus aureus [34]): 2 µg/mL (≈ 4.18 µM); MIC (Klebsiella pneumoniae [35]): > 128 µg/mL
Nc1nc(-n2cc(C(=O)O)c(=O)c3cc(F)c(N4CC/C(=N\OCc5ccccc5)C(N)C4)nc32)c(F)cc1F (stereo not given)	> 32	> 128	8 (≈ 14.5 µM)	128 (≈ 231 µM)	> 128	> 128	> 128	> 128	> 128	128 (≈ 231 µM)	4 (≈ 7.23 µM)	> 128	> 128	128 (≈ 231 µM)	> 128	> 128	> 128	> 128	> 128	64 (≈ 116 µM)	MIC (Pseudomonas aeruginosa [36]): 128 µg/mL (≈ 231 µM); MIC (Pseudomonas aeruginosa [21]): 128 µg/mL (≈ 231 µM); MIC (Enterococcus faecalis [22]): > 128 µg/mL; MIC (Klebsiella pneumoniae [23]): > 128 µg/mL; MIC (Klebsiella pneumoniae [24]): > 128 µg/mL; MIC (Klebsiella pneumoniae [25]): > 128 µg/mL; MIC (Enterococcus faecalis [26]): 128 µg/mL (≈ 231 µM); MIC (Escherichia coli [27]): 64 µg/mL (≈ 116 µM); MIC (Enterococcus faecium [28]): 64 µg/mL (≈ 116 µM); MIC (Enterococcus faecalis [29]): 128 µg/mL (≈ 231 µM); MIC (Escherichia coli [30]): 128 µg/mL (≈ 231 µM); MIC (Pseudomonas aeruginosa [31]): 128 µg/mL (≈ 231 µM); MIC (Staphylococcus aureus [32]): 8 µg/mL (≈ 14.5 µM); MIC (Klebsiella pneumoniae [33]): > 128 µg/mL; MIC (Staphylococcus aureus [34]): 8 µg/mL (≈ 14.5 µM); MIC (Klebsiella pneumoniae [35]): > 128 µg/mL
